Patent publication US5955508A, “Method for the enhancement of lymphocyte activity against opportunistic microbial pathogens” (priority 1996, dated 1999)

Experiments:
IL-2 in CD8+ T cells = assay: IL-2 production by CD8+ T cells, flow cytometry; assay type: cell-based, human; conditions: for % Positive Cells (IL-2 immunopositive), d-FEN / IL-2 Titer, d-FEN: Mean ± SEM
Text: (§1) The T lymphocytes analyzed were obtained from 20 HIV+ patients (9 females and 11 males, 25-48 years of age). The patients were diagnosed as being HIV+ within the past 0.5-9 years, and 15 are being treated with antiviral drugs. The subjects' study identification number (indicates the order in which bloods were drawn), CD4+ and CD8+ counts (determined March, 1996, as part of the present study), age, sex, date of diagnosis, and pharmacotherapy are provided in Table 1.
(§2) The experimental protocol for this project is illustrated in Table A. Note that the cultures were exposed to two doses (5 and 50 ng/ml) of d-FEN in the mitogenesis assays, whereas only one dose (50 ng/ml) was used in the antifungal and cytokine release assays.
(§3) Cytokine Profiles. Peripheral mononuclear cells were isolated by the Ficoll-Hypaque method and washed twice with RPMI-1640 medium. Cell suspensions were made at 1×10^6 /ml and the cells activated with interleukin-2 (IL-2) for 18 h or 4 days at 37° C. under 5% CO^2 +95% air. Monensin (1 nM) then was added to the culture to block secretion of cytokines, and the cultures allowed to continue for another 3 h. The cells were washed twice with PBS+1% fetal calf serum (FCS) with 0.1% saponin+0.1% sodium azide, then washed once with PBS-1% FCS and stained with anti-cytokine MAb-FL conjugate for 30 min. Following two washes, the cells were analyzed by flow cytometry for production of IL-2, IFN-γ and TNF-α. The MAbs-FL conjugates were obtained from Pharmingen (San Diego, Calif.). Potential effects of on cytokine production were evaluated (a) as increases in the percentage of a T cell subset which produce the respective cytokine; and, (b) as increases in the amount of cytokine produced by each subset. The latter were analyzed as a shift of the cytokine histograms.
(§4) The data were analyzed by a one- or two-way analysis of variance (ANOVA) with repeated measures where appropriate ([…] version 1; Jandel, San Rafael, Calif.). Significant main effects were subjected to post hoc analysis using the Student-Newman Keuls All Pairwise Multiple Comparisons test or the Mann-Whitney U test.

INF-γ in CD8+ T cells = assay: INF-γ production by CD8+ T cells, flow cytometry; assay type: cell-based, human; conditions: 50 ng/ml, Mean ± SEM
Text: as §1, §2, §3, §4

K562 human tumor cells = assay: Natural killer cell cytotoxicity of human PBMC against K562 tumor cells in vitro; assay type: cell-based
Method: Prior to conducting the above experiment, we examined the dose dependent effects of d-FEN on the ability of human PBMC obtained from five healthy volunteers (person Caucasians) to kill human K562 tumor cells in vitro. The potential cytotoxic enhancing effects of d-FEN and d-norFEN were compared using PBMC from two of the five human donors.
For assessment of immunological parameters of human PBMC, venous blood as aseptically drawn into sterile 10 ml tubes containing 20 U/ml preservative free heparin, diluted with an equal volume of Hank's Balanced Salt Solution (HBSS), layered over Lymphocyte Separation Medium (LSM, Bionetics, Kensington, Md.) and centrifuged at 1,000 ×g for 30 min. After centrifugation, the mononuclear cell layer was recovered from the interface and washed twice in HBSS and enumerated.
The K562 cell line originated from a chronic myelogenous leukemia patient and was obtained from Dr. T. Ellis (Director, Cellular Immunology Laboratory, LUMC). The K562 cells used for assessment of cytotoxic activity were maintained in long term cultures using Corning 25 cm^2 tissue culture flasks (Corning Glass Works, Corning, N.Y.) containing RPMI 1640 (Gibco Laboratories, Grand Island, N.Y.) supplemented with low LPS 10% fetal bovine serum (FBS; Gibco), 100 units/ml penicillin, 100 μg/ml streptomycin (Whittaker M. A. Bioproducts, Walkersville, Md.), 0.1 mM non-essential amino acids, and 2 mM L-glutamine (Gibco). This medium was used throughout, except where noted, and is referred to as "culture medium". The K562 cells were grown in suspension and were passaged three times per week by transfer of 10^6 K562 cells into a flask containing 10 ml of fresh culture medium. The K562 cells injected into the SCID mice were supplemented with fresh medium at a 1:3 dilution the day before administration. They were washed once in medium, pelleted by centrifugation at 500 ×g for 10 min., then resuspended at a concentration of 5×10^7. Subsequently, 0.2 ml (1×10^7 cells) of the cell suspension was injected (i.p.) into each SCID mouse. The K562 cells were administered to the animals four days after the injection of PBMC.
The K562 tumor cell lines maintained in vitro were washed once in culture medium, pelleted by centrifugation at 500×g for 10 min and resuspended in approximately 0.1 ml of culture medium. Subsequently, 100 μCi of [^51 Cr] (New England Nuclear, Boston, Mass.) was added to 1×10^5 cells in a final volume of 0.2 ml. The cells were incubated at 37° C. with 5% CO2 for 1 h with agitation every 10 min, then washed 3 times in HBSS, resuspended to 5×10^4 cells/ml in culture medium and 0.1 ml (5×10^3) aliquoted to each well of a 96 well round bottom assay plate (Corning Glass Works, Corning, N.Y.). Radiolabelled K562 was cultured for 4 h with lymphocytes at effector to target ratios ranging from 50:1 to 6:1. Following 4 h of culture the media was removed using a Skatron harvesting press (Skatron Inc., Sterling, Va.) and associated radioactivity determined. Maximum release was obtained by adding 0.05% Nonidet P-40 (Sigma Chemical Co., St. Louis, Mo.).
The results have been expressed as % cytotoxicity and calculated by the formula: % cytotoxicity=[(experimental DPM-minimum DPM)/(maximum DPM-minimum DPM)]×100.
All experimental means were calculated from triplicate values. Lytic units (LU) were calculated using a computer program written by David Coggins, FCRC, Frederick, Md.

TNF-α in CD8+ T cells = assay: TNF-α production by CD8+ T cells, flow cytometry; assay type: cell-based, human; conditions: 50 ng/ml; for % Positive Cells (TNF-α immunopositive), d-FEN / TNF-α Titer, d-FEN: Mean ± SEM
Text: as §1, §2, §3, §4

[1] = 50 ng/ml, CD8+ T cells, non-AIDS HIV+

CCN[C@@H](C)Cc1cccc(C(F)(F)F)c1 [d-FEN]
% Positive Cells (IL-2 immunopositive), d-FEN (IL-2 in CD8+ T cells; 50 ng/ml, CD8+ T cells, AIDS): 18 ± 4% | IL-2 Titer, d-FEN (IL-2 in CD8+ T cells; 50 ng/ml, CD8+ T cells, AIDS): 147 ± 34 geometric mean channel fluorescence | effect on IL-2 titer in words (IL-2 in CD8+ T cells; 50 ng/ml, CD8+ T cells, non-AIDS): not from the non-AIDS patients | % Positive Cells (IL-2 immunopositive), d-FEN (IL-2 in CD8+ T cells; [1]): 36 ± 3% | IL-2 Titer, d-FEN (IL-2 in CD8+ T cells; [1]): 220 ± 28 geometric mean channel fluorescence | activation at 0.05 µg/mL (IL-2 in CD8+ T cells; Homo sapiens, T-cell, read-out: percent increase of IL-2 titer over VEH): 40% | % Positive Cells (INF-γ immunopositive), d-FEN (INF-γ in CD8+ T cells; AIDS): 40 ± 5% | INF-γ Titer, d-FEN (INF-γ in CD8+ T cells; AIDS): 764 ± 86 geometric mean channel fluorescence | % Positive Cells (INF-γ immunopositive), d-FEN (INF-γ in CD8+ T cells; non-AIDS HIV+): 47 ± 4% | INF-γ Titer, d-FEN (INF-γ in CD8+ T cells; non-AIDS HIV+): 964 ± 71 geometric mean channel fluorescence | Percent Change in Cytotoxicity (Mean ± SEM) (K562 human tumor cells; 0.25 ng/ml): 19 ± 2% | percent increase in cytotoxicity (K562 human tumor cells; 0.25 ng/ml, DONOR #1): 22% | percent increase in cytotoxicity (K562 human tumor cells; 0.25 ng/ml, DONOR #2): 19% | Percent Change in Cytotoxicity (Mean ± SEM) (K562 human tumor cells; 0.50 ng/ml): 28 ± 4% | percent increase in cytotoxicity (K562 human tumor cells; 0.50 ng/ml, DONOR #1): 36% | percent increase in cytotoxicity (K562 human tumor cells; 0.50 ng/ml, DONOR #2): 21% | Percent Change in Cytotoxicity (Mean ± SEM) (K562 human tumor cells; 1.00 ng/ml): 16 ± 3% | percent increase in cytotoxicity (K562 human tumor cells; 1.00 ng/ml, DONOR #1): 23% | percent increase in cytotoxicity (K562 human tumor cells; 1.00 ng/ml, DONOR #2): 17% | Percent Change in Cytotoxicity (Mean ± SEM) (K562 human tumor cells; 4.00 ng/ml): 11 ± 5% | Percent Change in Cytotoxicity (Mean ± SEM) (K562 human tumor cells; 20.00 ng/ml): -33 ± 5% | Percent Change in Cytotoxicity (Mean ± SEM) (K562 human tumor cells; 50.00 ng/ml): -53 ± 6% | Percent Change in Cytotoxicity (Mean ± SEM) (K562 human tumor cells; 100.00 ng/ml): -87 ± 2% | dose dependent effect on cytotoxicity in words (K562 human tumor cells; PBMC of five healthy volunteers, p<0.001): low doses of d-FEN enhanced whereas higher doses reduced cytotoxicity | d-FEN vs d-norFEN effect on cytotoxicity in words (K562 human tumor cells; PBMC of two donors): virtually identical effects | effect on capacity of human NK cells to kill K562, in words (K562 human tumor cells; conclusion): augments the capacity of human NK cells to kill the human tumor cell line, K562 | effect on TNF-α titer in words (TNF-α in CD8+ T cells): No significant effects on TNF-α titer were observed | % Positive Cells (TNF-α immunopositive), d-FEN (TNF-α in CD8+ T cells; AIDS): 62 ± 4% | TNF-α Titer, d-FEN (TNF-α in CD8+ T cells; AIDS): 329 ± 57 geometric mean channel fluorescence | % Positive Cells (TNF-α immunopositive), d-FEN (TNF-α in CD8+ T cells; non-AIDS HIV+): 69 ± 3% | TNF-α Titer, d-FEN (TNF-α in CD8+ T cells; non-AIDS HIV+): 392 ± 47 geometric mean channel fluorescence | activation at 0.05 µg/mL (TNF-α in CD8+ T cells; Homo sapiens, T-cell, AIDS, read-out: percent increase of TNF-α+ cells over VEH): 24%
